Structures can show the parent of a compound that is named as a salt.

The target in this assay is T1, 5-HT1A receptor (Rattus norvegicus, UniProt P19327).
T1 construct: a rat brain was homogenized in Tris buffer and centrifuged; from tissue; host or cells: rat brain membrane preparation
T1 sequence (P19327 1-422): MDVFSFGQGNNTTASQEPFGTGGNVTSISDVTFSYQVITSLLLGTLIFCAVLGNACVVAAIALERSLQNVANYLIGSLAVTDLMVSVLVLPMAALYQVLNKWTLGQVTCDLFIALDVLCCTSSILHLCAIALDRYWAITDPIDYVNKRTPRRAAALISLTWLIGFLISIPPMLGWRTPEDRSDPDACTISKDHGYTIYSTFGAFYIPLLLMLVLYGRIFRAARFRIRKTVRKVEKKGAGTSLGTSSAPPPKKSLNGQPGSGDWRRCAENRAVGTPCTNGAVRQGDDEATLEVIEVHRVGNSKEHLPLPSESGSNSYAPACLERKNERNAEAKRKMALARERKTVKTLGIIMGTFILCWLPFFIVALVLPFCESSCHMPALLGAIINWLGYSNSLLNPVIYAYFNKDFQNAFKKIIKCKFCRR
Kind of assay: binding assay using [3H]8-OH-DPAT, rat brain membrane preparation.
Experimental: To say more exactly, a rat brain was homogenized in Tris buffer and centrifuged. The resultant sediment was rehomogenized using Tris buffer and incubated at 37° C. for 10 minutes, followed by centrifugation. The resulting deposit was homogenized in Tris buffer containing pargyline, calcium chloride and ascorbic acid and subjected to binding assay (membrane preparation).
The assay was carried out by combining the membrane preparation with [3H]8-OH-DPAT and the test compound and then incubating at 37° C. for 10 minutes.
Subsequently, the mixture was immediately filtered through a Whatman GF/B filter and the radio-activity remaining on the filter was measured by liquid chromatography.
The binding capacity of the test compound to 5-HT1A receptor was expressed as Ki value calculated by the formula: [formula] wherein [L] denotes the concentration of [3H]8-OH-DPAT, kd represents the dissociation constant, and IC50 represents the concentration of the test compound required to produce a 50% inhibition of [3H]8-OH-DPAT binding.
Usually Ki stands for a measure of affinity in units of concentration, obtained from inhibition or displacement. High values mean lower affinity, low ones higher affinity. `c1ccc(N2CCN(CCCOc3ccc4c(c3)OCO4)CC2)nc1` [No. 2]: the affinity, expressed as Ki, was 0.0024 µM.

Turning to `c1cnc(N2CCN(CCCOc3ccc4c(c3)OCO4)CC2)nc1` [No. 3], the affinity corresponds to a Ki of 0.0101 µM. This Ki lies about 4.2-fold higher than the previous one.

Consider `c1ccc(N2CCN(CCCSc3ccc4c(c3)OCCO4)CC2)cc1` [No. 21], for which the inhibition constant Ki is 0.0712 µM. This Ki is about 7-fold higher than that of the molecule before.

As for `c1ccc(N2CCN(CCCOc3ccc4c(c3)OCCO4)CC2)cc1` [No. 15], the affinity, expressed as Ki, was 0.0057 µM. Against the preceding molecule, the Ki is about 12-fold lower.

Consider `OC(CCCN1CCN(c2ccccc2)CC1)c1ccc2c(c1)OCO2` (stereo not shown) [No. 18], for which affinity was put at a Ki of 0.008 µM. The Ki values of the last two molecules are within 1.5-fold of each other.

`c1ccc(N2CCN(CCCOc3ccc4c(c3)OCO4)CC2)cc1` [No. 1] displayed an inhibition constant (Ki) of 0.0047 µM.

In turn, `O=C(CCCN1CCN(c2ccccc2)CC1)c1ccc2c(c1)OCO2` [No. 17] had an inhibition constant (Ki) of 0.0057 µM.

`COc1ccc(OCCCN2CCN(c3ccccc3OC)CC2)cc1OC` [No. 8] came in with an inhibition constant Ki of 0.0143 µM.

With `c1ccc(N2CCN(CCCCOc3ccc4c(c3)OCO4)CC2)cc1` [No. 4], the affinity, expressed as Ki, was 0.0101 µM.

For the molecule `[O-][S+](CCCN1CCN(c2ccccc2)CC1)c1ccc2c(c1)OCCCO2` (stereo not shown) [No. 22], the Ki was found to be 0.0254 µM.

In the case of `Fc1ccc(N2CCN(CCCOc3ccc4c(c3)OCO4)CC2)cc1` [No. 12], the affinity corresponds to a Ki of 0.016 µM.

For the molecule `O=C1c2ccccc2S(=O)(=O)N1CCCCN1CCN(c2ncccn2)CC1` [Ipsapirone, 2-(4-(4-(2-pyrimidinyl)-1-piperazinyl)butyl)-1,2-benzisothiazol-3-(2H)one-1,1-dioxydehydrochloride, reference compound], the inhibition constant (Ki) worked out at 0.0022 µM. This Ki is about 7.3-fold lower than that of the molecule before.

In turn, `COc1cc(OCCCN2CCN(c3ccccc3)CC2)cc(OC)c1OC` [No. 7] showed an inhibitory constant (Ki) of 0.0057 µM.

Regarding `O=C(CCN1CCN(c2ccccc2)CC1)Nc1ccc2c(c1)OCO2` [No. 10], the Ki is 0.0254 µM.

In the case of `Cc1ccccc1N1CCN(CCCOc2ccc3c(c2)OCO3)CC1` [No. 14], the affinity corresponds to a Ki of 0.101 µM. This Ki lies about 4-fold higher than the previous one.

For the molecule `c1ccc(N2CCN(CCCNc3ccc4c(c3)OCO4)CC2)cc1` [No. 11], the Ki was determined as 0.018 µM.

Turning to `FC(F)(F)c1cccc(N2CCN(CCCCOc3ccc4c(c3)OCO4)CC2)c1` [No. 6], the inhibitory constant (Ki) stood at 0.0559 µM.

The molecule `c1ccc(N2CCN(CCOc3ccc4c(c3)OCO4)CC2)cc1` [No. 16] displayed a Ki of 0.127 µM.

On to `FC(F)(F)c1cccc(N2CCN(CCCOc3ccc4c(c3)OCO4)CC2)c1` [No. 13], for which the affinity corresponds to a Ki of 0.008 µM.

Molecule `Fc1ccc(N2CCN(CCCCOc3ccc4c(c3)OCO4)CC2)cc1` [No. 5] had a Ki of 0.0332 µM.

For the molecule `c1ccc(N2CCN(CCCCOc3ccc4c(c3)OCCO4)CC2)cc1` [No. 19], the affinity, expressed as Ki, was 0.016 µM.

In turn, `O=C(CCCCN1CCN(c2ccccc2)CC1)c1ccc2c(c1)OCO2` [No. 20] showed a Ki of 0.0101 µM.

(Values after US5219855A, “Anxiolytic drug” (Mitsubishi Kasei Corporation, priority 1988, dated 1993).)
